Test results reported in US20260256921A1, “BIFUNCTIONAL MOLECULES TO TARGET DEGRADATION OF TUMOR NECROSIS FACTOR” (Biohaven Therapeutics Ltd., priority 2023, published 2026).

Biological target: T1, Biotinylated Human TNF-α Protein (active trimer) (Homo sapiens, UniProt P01375)
T1 construct: purchased ACROBiosystems TNA-H82E3
Test: Octet (BLI) binding to TNF-α
Settings: 1:1 binding model, N.B. = No Binding
Experimental: Protocol. The binding to IL-17A was measured by Bio-Layer Interferometry (BLI) using the Sartorius Octet 96e platform (Goettingen, Germany). The binding assay was performed using Streptavidin (SA) Dip and Read Biosensors (Sartorius Catalog #18-5019; Goettingen, Germany) in OptiPlate-96F, Black, 96-well, Pinch bar design, plates (Perkin Elmer Catalog #6005270; Waltham, MA, USA) with the following steps: (1) 60 seconds of baseline; (2) 600 seconds of loading with 50 nM TNF-α (Biotinylated Human TNF-α Protein, His, Avitag (active trimer); ACROBiosystems Catalog #TNA-H82E3; Newark, DE, USA); (3) 60 seconds of baseline; (4) 120 seconds of quenching with 50 μg/ml of Biocytin (Thermo Fisher Catalog #B1592; Waltham, MA, USA); (5) 60 seconds of baseline; (6) 180 seconds of association with a dilution series of ligand consisting of seven concentrations. The eighth tip in the column was run in Assay Buffer (Phosphate Buffered Saline (PBS; Gibco Catalog #10010; Pottstown, PA, USA)+0.05% Tween 20 (v/v) (Fisher BioReagents Catalog BP337-500; Pittsburgh, PA, USA)+0.1% BSA (w/v) (Rockland Catalog #BSA-50; Pottstown, PA, USA)) to serve as a reference sensor, the signal of which was subtracted from the sample sensors. (7) 180 seconds of dissociation in Assay Buffer.
Results. Data analysis was done using the Octet Data Analysis HT software (Sartorius, Goettingen, Germany). Processed data was globally fit to a 1:1 binding model for determination of the equilibrium dissociation constant (KD).

T1 sequence (P01375 77-233 limits assumed): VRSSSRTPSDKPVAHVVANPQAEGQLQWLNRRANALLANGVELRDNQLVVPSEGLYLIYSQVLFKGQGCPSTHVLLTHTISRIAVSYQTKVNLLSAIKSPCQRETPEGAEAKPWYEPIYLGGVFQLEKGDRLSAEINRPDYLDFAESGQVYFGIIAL

Octet Kd TNF-α | SMILES
N.B. | CCC(=O)NC1COC(COCCOCCOCCOCCn2cc(COCC(COCc3cn(CCOCCOCCOCCOCC4OCC(NC(=O)CC)C(O)C4O)nn3)(COCc3cn(CCOCCOCCOCCOCC4OCC(NC(=O)CC)C(O)C4O)nn3)NC(=O)CNC(=O)CCOCCOCCC(=O)N3CCN(Cc4ccc(-c5c[nH]c6ccncc56)c(OCCc5ccc(-c6cccc7ccncc67)cc5)c4)CC3)nn2)C(O)C1O (centres unmarked) [Compound 103]
N.B. | CCC(=O)NC1COC(COCCOCCOCCOCCn2cc(COCC(COCc3cn(CCOCCOCCOCCOCC4OCC(NC(=O)CC)C(O)C4O)nn3)(COCc3cn(CCOCCOCCOCCOCC4OCC(NC(=O)CC)C(O)C4O)nn3)NC(=O)CNC(=O)CCC(=O)N3CCN(Cc4ccc(-c5c[nH]c6ccncc56)c(OCCc5ccc(-c6cccc7ccncc67)cc5)c4)CC3)nn2)C(O)C1O (centres unmarked) [Compound 104]
N.B. | CCC(=O)NC1COC(COCCOCCOCCOCCn2cc(COCCNC(=O)CNC(=O)CCOCCOCCOCCOCCOCCOCCC(=O)N3CCN(Cc4ccc(-c5c[nH]c6ccncc56)c(OCCc5ccc(-c6cccc7ccncc67)cc5)c4)CC3)nn2)C(O)C1O (centres unmarked) [Compound 105]
N.B. | CCC(=O)N[C@H]1CO[C@H](COCCOCCOCCOCCn2cc(COCCNC(=O)CNC(=O)CCC(=O)N3CCN(Cc4ccc(-c5c[nH]c6ccncc56)c(OCCc5ccc(-c6cccc7ccncc67)cc5)c4)CC3)nn2)[C@H](O)[C@@H]1O [Compound 106]
N.B. | CCC(=O)N[C@H]1CO[C@H](COCCOCCOCCOCCn2cc(COCCNC(=O)CNC(=O)CCOCCOCCC(=O)N3CCN(Cc4ccc(-c5c[nH]c6ccncc56)c(OCCc5ccc(-c6cccc7ccncc67)cc5)c4)CC3)nn2)[C@H](O)[C@@H]1O [Compound 107]
